Reference: article PMC10206600, “Two Distinct Thermodynamic Gradients for Cellular Metalation of Vitamin B12” (JACS Au, 2023)

Molecular target: T1, CobNST (Rhodobacter capsulatus, UniProt D5AV09)
T1 construct: gene cobN; recombinant from E. coli BL21(DE3) pLysS; N-terminal 6xHis-tag and thrombin site on CobN (pET14b) and CobS (pET3a), CobT untagged, CobST copurified; 13 subunits; with Aerobic cobaltochelatase subunit CobS; Aerobic cobaltochelatase subunit CobT
T1 sequence (D5AV09 1-1085): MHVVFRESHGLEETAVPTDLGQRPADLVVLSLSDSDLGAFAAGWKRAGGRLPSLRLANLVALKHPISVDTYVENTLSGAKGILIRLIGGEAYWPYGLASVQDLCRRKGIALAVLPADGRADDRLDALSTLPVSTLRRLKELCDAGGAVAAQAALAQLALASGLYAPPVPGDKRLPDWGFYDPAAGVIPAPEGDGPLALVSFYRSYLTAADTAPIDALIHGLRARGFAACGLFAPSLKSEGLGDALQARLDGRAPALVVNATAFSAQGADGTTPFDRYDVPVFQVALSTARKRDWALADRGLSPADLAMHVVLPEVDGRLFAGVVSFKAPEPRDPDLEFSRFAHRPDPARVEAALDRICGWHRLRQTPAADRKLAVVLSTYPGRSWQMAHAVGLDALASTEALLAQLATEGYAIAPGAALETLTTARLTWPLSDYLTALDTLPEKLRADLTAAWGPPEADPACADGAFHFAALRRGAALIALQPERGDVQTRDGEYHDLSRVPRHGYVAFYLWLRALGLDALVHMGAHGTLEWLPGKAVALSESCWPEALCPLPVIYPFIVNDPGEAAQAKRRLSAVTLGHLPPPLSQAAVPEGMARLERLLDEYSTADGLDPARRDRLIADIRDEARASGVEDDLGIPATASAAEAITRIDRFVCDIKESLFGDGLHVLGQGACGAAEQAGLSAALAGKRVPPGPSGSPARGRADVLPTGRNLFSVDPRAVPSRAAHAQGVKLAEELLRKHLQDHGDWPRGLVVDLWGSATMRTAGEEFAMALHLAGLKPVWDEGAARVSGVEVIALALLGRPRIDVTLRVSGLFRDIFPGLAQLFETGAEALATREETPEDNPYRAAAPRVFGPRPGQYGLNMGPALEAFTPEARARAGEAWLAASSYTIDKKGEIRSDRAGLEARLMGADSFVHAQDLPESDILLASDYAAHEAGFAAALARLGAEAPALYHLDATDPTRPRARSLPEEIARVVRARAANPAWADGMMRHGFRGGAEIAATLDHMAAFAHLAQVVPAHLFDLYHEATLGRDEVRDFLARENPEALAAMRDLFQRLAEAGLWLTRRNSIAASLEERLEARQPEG
T1 sequence (D5AQ14 1-324 partner): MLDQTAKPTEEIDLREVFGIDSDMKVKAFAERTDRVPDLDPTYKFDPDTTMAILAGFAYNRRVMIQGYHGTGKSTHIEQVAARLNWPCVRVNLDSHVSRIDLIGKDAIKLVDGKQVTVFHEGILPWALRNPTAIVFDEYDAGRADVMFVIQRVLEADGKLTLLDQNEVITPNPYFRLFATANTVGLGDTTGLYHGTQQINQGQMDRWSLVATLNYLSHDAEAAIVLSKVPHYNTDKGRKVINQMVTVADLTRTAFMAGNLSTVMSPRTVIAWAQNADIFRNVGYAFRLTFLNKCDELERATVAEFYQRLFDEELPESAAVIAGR
T1 sequence (D5AQ13 1-624 partner): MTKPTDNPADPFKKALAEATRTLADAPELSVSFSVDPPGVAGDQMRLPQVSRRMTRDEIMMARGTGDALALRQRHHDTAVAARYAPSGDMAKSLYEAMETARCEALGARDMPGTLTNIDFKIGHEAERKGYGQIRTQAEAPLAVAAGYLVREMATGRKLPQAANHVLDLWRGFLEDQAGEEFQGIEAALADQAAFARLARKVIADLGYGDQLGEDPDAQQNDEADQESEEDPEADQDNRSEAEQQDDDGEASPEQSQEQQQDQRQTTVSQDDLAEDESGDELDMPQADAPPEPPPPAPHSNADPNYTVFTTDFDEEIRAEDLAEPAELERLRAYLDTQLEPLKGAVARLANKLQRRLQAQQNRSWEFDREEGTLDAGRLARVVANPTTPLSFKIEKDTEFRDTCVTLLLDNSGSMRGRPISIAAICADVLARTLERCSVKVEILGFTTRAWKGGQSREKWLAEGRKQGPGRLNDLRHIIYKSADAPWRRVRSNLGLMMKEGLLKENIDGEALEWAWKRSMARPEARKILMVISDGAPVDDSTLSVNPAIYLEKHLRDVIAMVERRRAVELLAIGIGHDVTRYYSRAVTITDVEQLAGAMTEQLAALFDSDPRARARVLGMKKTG
Assay: UV-visible absorbance at […] nm, Co(II) chelation
Format: biochemical
Conditions: 10 uM HBAD, 100 uM total Co(II), 10 mM MgCl2, 5 mM ATP, 50 mM Hepes pH 7.0, 100 mM NaCl, 20-25 C, anaerobic

C/C1=C2N=C(/C=C3\N/C(=C(/C)C4=N[C@@](C)([C@@H]5N=C1[C@](C)(CCC(=O)O)[C@H]5CC(=O)O)[C@@](C)(CC(N)=O)[C@@H]4CCC(=O)O)[C@@](C)(CC(N)=O)[C@@H]3CCC(=O)O)C(C)(C)[C@@H]/2CCC(=O)O [HBAD, hydrogenobyrinic acid a,c-diamide]
UV-visible absorbance at 330 nm, Co(II) chelation: Metalation of HBAD to form cobyrinic acid a,c-diamide (CBAD) was followed by changes in the UV–visible absorbance
